Experimental data as given in patent US10508088B2, “Methods using HDAC11 inhibitors” (FORMA Therapeutics, Inc., priority 2016, dated 2019).

Experiments:
[1] = test system: A549 side population stem-like cells (KRAS mutation); assay: Sphere formation assay with stem-like side population NSCLC cells; format: cell-based; conditions: A549 SP cells, 0.5-5.0 μM, Day 10
Protocol: (§1) In order to investigate the role of HDAC11 in the self-renewal of stem-like cancer cells, sphere formation assays were conducted with NSCLC side population (SP) stem-like cells. A549 and NCI-H1650 cells were obtained from the ATCC. Asynchronously growing A549 or NCI-H1650 cells were washed once with phosphate buffered saline (PBS) and harvested using Accutase solution (Sigma Aldrich) and resuspended in DMEM-F12K medium (Gibo, Life Technologies) with 2% fetal bovine serum (FBS) at 1×10^6 cells/ml density. The cells were incubated with 4 μg/ml of Hoechst 33342 dye (Life Technologies) for 90 min at 37° C. in the presence or absence of 1 μM Fumitremorgin C (Sigma-Aldrich) which was used as a control sample to set the gate during sorting. The Hoechst stained cells were sorted using the BD FACSAria cell sorter. The sorted SP cells were plated in 96-well ultra-low adherent plate (Corning Inc) at the cell density of 1000 cells/100 μl/well in stem cell selective medium (DMEM:F12K supplemented with N2 supplement, 10 ng/mL epidermal growth factor (EGF) and 10 ng/ml basic fibroblast growth factor (bFGF) (Sigma-Aldrich) at 37° C. for 7-10 days. The spheres were observed and acquired using EVOS FL microscope system (Life Technologies Inc., USA). The numbers of spheres greater than or equal to 50 μm were counted. To study the effect of the HDAC11 inhibitors, the appropriate concentrations of the compounds were added to the wells on Day 0 and Day 5 and the image acquisition and analysis of the spheres were performed on Day 10. The sphere formation assays were performed twice with triplicates of each treatment in every assay.

[2] = test system: H1650 side population stem-like cells (EGFR mutation); assay: as above; format: cell-based; conditions: H1650 SP cells, 0.5-5.0 μM, Day 10
Protocol: as §1

[3] = test system: NCI-H2170 cells; assay: Cell proliferation assay with combination treatment (MTT); format: cell-based; conditions: H2170, combination with GDC-0449 (Vismodegib) or BMS-833923, 96 hours
Protocol: (§2) Selective HDAC11 inhibitors may be useful in combination with other targeted agents, including Jak2 inhibitors and Smoothened inhibitors. The effect of combination with the Smoothened inhibitors GDC-0449 (Vismodegib) and BMS-833923 was tested in lung cancer cell lines. A549 and NCI-H2170 cells were obtained from the ATCC. H2170 is a squamous carcinoma cell line. Cell viability was assessed using MTT reagent (Thiazolyl Blue Tetrazolium Bromide) (Sigma-Aldrich). The cells were grown in 96-well plates at a density of 3000-5000 cells/well in triplicates. The HDAC11 inhibitors were added to the adherent cells at different concentrations and treatment was carried out for 96 hours. After treatments, the cells were incubated with the 1 mg/mL MTT reagent at 37° C. for 1 hour. The reaction was terminated with DMSO that solubilizes the formazan product formed. Absorbance at 590 nm was recorded in a plate reader.

[4] = test system: A549 cells; assay: as above; format: cell-based; conditions: A549, combination with GDC-0449 (Vismodegib) or BMS-833923, 96 hours
Protocol: as §2

[5] = biological target: HDAC1 (Homo sapiens (Human), UniProt Q13547); assay: HDAC inhibition assay, electrophoretic mobility shift (Nanosyn); conditions: read-out: HDAC Biochemical IC50 HDAC1
Protocol: (§3) This example describes in vitro inhibition properties of exemplary HDAC11 inhibitors for various HDACs. HDAC inhibition assays were performed using an electrophoretic mobility shift assay at Nanosyn, Inc. (Santa Clara, Calif.). Full length human recombinant HDAC proteins were expressed in the baculoviral system and purified by affinity chromatography. A human recombinant HDAC3 was co-expressed with nuclear receptor corepressor (Ncor2). The following peptide substrates were used: FAM-RHKK(Ac)-NH2 for HDAC3, HDAC6 and HDAC8; FITC-H3K27(Ac)-NH2 for HDAC1, HDAC2 and HDAC10; FAM-RHKK(tri-fluor-Ac)-NH2 for HDAC4, HDAC5, HDAC7, HDAC9 and HDAC11. Reactions consisting of compound, enzyme, and substrate were performed in reaction buffer (comprised of 100 mM HEPES, pH7.5, 25 mM KCl, 0.1% bovine serum albumin, 0.01% Triton X-100) at 25° C. and quenched by the addition of termination buffer (100 mM HEPES, pH7.5, 0.01% Triton X-100, 0.05% SDS). The fluorescence intensity of the electrophoretically separated de-acetylated product and substrate peptide were measured and analyzed using the LabChip® 3000 microfluidic electrophoresis instrument (Perkin Elmer/Caliper Life Sciences). The IC50 values of inhibitors were determined by fitting the %-inhibition curves with 4 parameter dose-response model using XLfit 4 software (IDBS).

[6] = biological target: HDAC2 (Homo sapiens (Human), UniProt Q92769); assay: as above; conditions: read-out: HDAC Biochemical IC50 HDAC2
Protocol: as §3

[7] = biological target: HDAC7 (Homo sapiens (Human), UniProt Q8WUI4); assay: as above; conditions: read-out: HDAC Biochemical IC50 HDAC7
Chain of HDAC7 (Q8WUI4 whole entry): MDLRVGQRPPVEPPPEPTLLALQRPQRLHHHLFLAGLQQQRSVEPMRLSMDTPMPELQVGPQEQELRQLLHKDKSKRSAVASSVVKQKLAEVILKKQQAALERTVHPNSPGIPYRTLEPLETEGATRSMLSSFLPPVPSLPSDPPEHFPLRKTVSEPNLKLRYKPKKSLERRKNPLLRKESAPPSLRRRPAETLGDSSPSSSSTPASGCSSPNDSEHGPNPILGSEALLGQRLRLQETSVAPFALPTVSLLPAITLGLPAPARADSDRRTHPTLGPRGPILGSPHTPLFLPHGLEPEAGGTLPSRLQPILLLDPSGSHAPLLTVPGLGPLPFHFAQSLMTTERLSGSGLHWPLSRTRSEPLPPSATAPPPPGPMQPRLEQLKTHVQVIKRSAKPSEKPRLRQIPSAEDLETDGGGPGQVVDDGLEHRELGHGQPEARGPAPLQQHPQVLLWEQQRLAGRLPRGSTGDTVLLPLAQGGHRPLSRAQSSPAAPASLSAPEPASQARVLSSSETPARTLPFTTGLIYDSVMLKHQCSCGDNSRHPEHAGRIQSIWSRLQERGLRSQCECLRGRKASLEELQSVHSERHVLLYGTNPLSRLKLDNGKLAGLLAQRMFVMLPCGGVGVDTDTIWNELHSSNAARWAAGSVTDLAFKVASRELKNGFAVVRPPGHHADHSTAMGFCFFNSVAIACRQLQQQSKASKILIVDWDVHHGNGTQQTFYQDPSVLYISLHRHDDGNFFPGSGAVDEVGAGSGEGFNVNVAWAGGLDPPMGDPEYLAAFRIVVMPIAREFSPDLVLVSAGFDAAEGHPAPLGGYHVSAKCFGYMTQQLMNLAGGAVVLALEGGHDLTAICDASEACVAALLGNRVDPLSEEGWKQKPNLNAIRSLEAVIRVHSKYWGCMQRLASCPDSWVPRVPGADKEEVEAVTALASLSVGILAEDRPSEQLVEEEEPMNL
Protocol: as §3

[8] = biological target: HDAC5 (Homo sapiens (Human), UniProt Q9UQL6); assay: as above; conditions: read-out: HDAC Biochemical IC50 HDAC5
Protocol: as §3

[9] = biological target: HDAC4 (Homo sapiens (Human), UniProt P56524); assay: as above; conditions: read-out: HDAC Biochemical IC50 HDAC4
Chain of HDAC4 (P56524 whole entry): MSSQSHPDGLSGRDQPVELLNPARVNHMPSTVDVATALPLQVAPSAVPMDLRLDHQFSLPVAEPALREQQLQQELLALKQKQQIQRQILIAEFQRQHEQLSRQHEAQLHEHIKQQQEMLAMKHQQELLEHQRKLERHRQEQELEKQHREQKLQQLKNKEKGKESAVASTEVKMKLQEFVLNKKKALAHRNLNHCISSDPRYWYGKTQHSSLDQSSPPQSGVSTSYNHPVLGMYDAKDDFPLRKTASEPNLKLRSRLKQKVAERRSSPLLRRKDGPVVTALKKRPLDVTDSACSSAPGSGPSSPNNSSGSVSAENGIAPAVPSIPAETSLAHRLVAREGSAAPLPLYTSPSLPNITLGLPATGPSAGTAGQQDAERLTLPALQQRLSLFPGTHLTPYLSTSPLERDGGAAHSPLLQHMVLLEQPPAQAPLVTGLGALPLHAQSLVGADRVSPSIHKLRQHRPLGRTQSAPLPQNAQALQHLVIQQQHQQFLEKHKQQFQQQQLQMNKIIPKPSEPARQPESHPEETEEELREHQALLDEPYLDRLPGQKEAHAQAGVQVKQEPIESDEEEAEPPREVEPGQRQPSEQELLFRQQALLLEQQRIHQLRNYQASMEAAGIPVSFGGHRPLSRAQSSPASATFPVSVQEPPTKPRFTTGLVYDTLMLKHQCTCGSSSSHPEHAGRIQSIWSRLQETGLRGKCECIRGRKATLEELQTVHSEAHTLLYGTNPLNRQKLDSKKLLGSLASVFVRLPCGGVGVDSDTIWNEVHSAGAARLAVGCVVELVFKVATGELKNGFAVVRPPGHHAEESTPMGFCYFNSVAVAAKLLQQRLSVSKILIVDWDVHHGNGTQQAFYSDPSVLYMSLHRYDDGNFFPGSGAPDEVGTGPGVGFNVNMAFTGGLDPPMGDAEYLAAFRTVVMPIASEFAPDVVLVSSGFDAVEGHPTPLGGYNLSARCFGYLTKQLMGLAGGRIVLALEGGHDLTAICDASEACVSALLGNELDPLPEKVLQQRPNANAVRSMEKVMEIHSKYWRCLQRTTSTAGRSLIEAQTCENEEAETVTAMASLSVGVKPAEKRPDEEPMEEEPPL
Protocol: as §3

[10] = biological target: HDAC3 co-expressed with nuclear receptor corepressor (Ncor2) (Homo sapiens (Human), UniProt O15379); assay: as above; conditions: read-out: HDAC Biochemical IC50 HDAC3
Chain of HDAC3 co-expressed with nuclear receptor corepressor (Ncor2) (O15379 whole entry): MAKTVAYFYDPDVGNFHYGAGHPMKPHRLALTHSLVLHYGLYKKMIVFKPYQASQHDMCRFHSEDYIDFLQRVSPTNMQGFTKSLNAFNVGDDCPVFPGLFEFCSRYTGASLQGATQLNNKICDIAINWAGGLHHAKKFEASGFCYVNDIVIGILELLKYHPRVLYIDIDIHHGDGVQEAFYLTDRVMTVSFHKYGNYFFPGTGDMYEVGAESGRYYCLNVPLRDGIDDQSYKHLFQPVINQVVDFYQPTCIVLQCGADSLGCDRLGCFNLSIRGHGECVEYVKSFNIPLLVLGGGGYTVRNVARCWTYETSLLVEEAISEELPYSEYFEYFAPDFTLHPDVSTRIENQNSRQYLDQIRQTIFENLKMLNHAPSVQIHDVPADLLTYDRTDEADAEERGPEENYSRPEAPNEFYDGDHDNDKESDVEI
Chain of HDAC3 co-expressed with nuclear receptor corepressor (Ncor2) (Q9Y618 395-489 partner): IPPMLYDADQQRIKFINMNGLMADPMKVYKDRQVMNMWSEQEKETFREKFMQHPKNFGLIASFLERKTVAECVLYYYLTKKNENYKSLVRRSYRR
Protocol: as §3

[11] = biological target: HDAC8 (Homo sapiens (Human), UniProt Q9BY41); assay: as above; conditions: read-out: HDAC Biochemical IC50 HDAC8
Protocol: as §3

[12] = biological target: HDAC10 (Homo sapiens (Human), UniProt Q969S8); assay: as above; conditions: read-out: HDAC Biochemical IC50 HDAC10
Protocol: as §3

[13] = biological target: HDAC6 (Homo sapiens (Human), UniProt Q9UBN7); assay: as above; conditions: read-out: HDAC Biochemical IC50 HDAC6
Chain of HDAC6 (Q9UBN7 whole entry): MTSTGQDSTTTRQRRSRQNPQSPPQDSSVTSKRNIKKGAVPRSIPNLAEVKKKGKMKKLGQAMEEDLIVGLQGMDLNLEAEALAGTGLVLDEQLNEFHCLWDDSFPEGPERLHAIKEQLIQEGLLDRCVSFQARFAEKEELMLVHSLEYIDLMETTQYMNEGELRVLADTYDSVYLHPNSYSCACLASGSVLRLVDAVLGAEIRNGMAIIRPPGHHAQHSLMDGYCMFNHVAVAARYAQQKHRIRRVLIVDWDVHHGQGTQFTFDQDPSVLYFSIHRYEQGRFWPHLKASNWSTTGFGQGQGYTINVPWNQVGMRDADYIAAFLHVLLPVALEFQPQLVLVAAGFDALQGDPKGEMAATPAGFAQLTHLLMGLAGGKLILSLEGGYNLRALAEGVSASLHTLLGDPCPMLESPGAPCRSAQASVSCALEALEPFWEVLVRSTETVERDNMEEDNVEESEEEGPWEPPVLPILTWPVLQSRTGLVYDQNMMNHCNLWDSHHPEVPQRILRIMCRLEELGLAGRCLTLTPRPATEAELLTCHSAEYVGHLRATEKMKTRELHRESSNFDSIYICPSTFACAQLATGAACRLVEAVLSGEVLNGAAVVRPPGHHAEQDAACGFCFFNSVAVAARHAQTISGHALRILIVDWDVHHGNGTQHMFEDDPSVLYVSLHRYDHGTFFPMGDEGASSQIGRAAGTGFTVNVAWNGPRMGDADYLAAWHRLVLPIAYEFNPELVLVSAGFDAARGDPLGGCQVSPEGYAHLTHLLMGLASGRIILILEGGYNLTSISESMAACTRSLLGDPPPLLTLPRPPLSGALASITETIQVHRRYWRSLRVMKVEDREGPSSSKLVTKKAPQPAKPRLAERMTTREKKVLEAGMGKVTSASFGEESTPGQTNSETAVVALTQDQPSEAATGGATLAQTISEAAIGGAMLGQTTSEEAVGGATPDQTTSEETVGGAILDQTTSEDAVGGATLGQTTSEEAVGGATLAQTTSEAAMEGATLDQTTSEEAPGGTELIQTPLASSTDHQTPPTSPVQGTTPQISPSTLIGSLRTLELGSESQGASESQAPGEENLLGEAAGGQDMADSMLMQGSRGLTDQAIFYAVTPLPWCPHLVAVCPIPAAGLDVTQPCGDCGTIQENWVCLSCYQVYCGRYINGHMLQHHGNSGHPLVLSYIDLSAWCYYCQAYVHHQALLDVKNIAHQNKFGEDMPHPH
Protocol: as §3

[14] = biological target: HDAC9 (Homo sapiens (Human), UniProt Q9UKV0); assay: as above; conditions: read-out: HDAC Biochemical IC50 HDAC9
Chain of HDAC9 (Q9UKV0 whole entry): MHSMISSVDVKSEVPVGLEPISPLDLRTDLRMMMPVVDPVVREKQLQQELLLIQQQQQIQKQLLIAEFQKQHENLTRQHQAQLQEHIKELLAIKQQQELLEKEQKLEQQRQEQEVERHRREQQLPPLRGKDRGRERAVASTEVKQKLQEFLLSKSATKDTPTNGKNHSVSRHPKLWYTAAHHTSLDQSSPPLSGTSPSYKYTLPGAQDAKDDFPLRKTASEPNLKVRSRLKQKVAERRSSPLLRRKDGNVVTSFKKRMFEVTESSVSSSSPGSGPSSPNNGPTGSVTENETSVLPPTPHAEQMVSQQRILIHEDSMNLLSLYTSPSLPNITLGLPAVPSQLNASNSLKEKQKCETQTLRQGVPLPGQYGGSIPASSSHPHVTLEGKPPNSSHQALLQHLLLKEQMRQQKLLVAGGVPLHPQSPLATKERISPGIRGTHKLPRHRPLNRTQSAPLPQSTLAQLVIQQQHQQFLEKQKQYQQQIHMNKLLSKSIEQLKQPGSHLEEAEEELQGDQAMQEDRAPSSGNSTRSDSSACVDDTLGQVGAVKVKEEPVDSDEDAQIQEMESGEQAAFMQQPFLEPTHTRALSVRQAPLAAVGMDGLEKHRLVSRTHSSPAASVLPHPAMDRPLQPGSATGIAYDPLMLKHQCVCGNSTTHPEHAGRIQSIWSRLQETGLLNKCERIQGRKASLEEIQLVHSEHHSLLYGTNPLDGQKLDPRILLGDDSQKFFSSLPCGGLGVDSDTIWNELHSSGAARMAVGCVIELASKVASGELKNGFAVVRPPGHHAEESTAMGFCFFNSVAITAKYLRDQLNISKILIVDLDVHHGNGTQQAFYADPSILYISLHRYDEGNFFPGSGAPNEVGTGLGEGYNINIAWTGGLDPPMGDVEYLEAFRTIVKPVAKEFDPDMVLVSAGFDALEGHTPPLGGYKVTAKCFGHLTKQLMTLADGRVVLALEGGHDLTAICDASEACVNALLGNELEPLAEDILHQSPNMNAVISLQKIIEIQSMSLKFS
Protocol: as §3

Row | Structure (SMILES) | growth of stem-like cancer cells (sphere formation) [1] | growth of stem-like cancer cells (sphere formation) [2] | cell viability, combination with the Smoothened inhibitors [3] | cell viability, combination with the Smoothened inhibitors [4] | IC50 [5] [µM] | IC50 [6] [µM] | IC50 [7] [µM] | IC50 [8] [µM] | IC50 [9] [µM] | IC50 [10] [µM] | IC50 [11] [µM] | IC50 [12] [µM] | IC50 [13] [µM] | IC50 [14] [µM]
1 | O=C(NO)c1cccc(Nc2nc3cc(Cl)c(Cl)cc3o2)c1 [HDTK010, 3-((5,6-dichlorobenzo[d]oxazol-2-yl)amino)-N-hydroxybenzamide] | prevented growth | prevented growth | decreased cell viability | decreased cell viability | > 10 | > 10 | 5 to 10 | > 10 | > 10 | > 10 | 0.5 to 1 | > 10 | 0.5 to 1 | > 10
2 | O=C(NO)c1cccc2c1C[C@]1(CCN(Cc3ccc(Cl)c(C(F)(F)F)c3)C1=O)C2 [HDTK054, (S)-1′-(4-chloro-3-(trifluoromethyl)benzyl)-N-hydroxy-2′-oxo-1,3-dihydrospiro[indene-2,3′-pyrrolidine]-4-carboxamide] | prevented growth | prevented growth | decreased cell viability | decreased cell viability | > 10 | > 10 | > 10 | > 10 | > 10 | > 10 | 5 to 10 | > 10 | > 10 | > 10
